Data on five compounds can be found in patent US20110245283A1, “Methods for predicting the response to statins” (priority 2009, published 2011).

Where two headings read alike, the source gives them in different places. Bounds are passed on as bounds.

Test [1] relates to LDL. The following applies: cited from earlier work.
Test [2] concerns LDL. As to the kind of experiment: Logistic regression models of attaining LDL goal: odds ratios for concurrent or prior drug doses. Type of test: in vivo, patients. The following applies: for OR: odds of goal. The procedure: G. Covariates for the multivariate model—The following list includes the predictors one or more of which may be tested in the multivariate models. • 1. AGE: (expressed in units of 10 years) at time that the new statin prescription was released • 2. GENDER, E. G., MALE: 1=yes, 0=no • 3. BMI (kg/M^2): last value before release date • 4. HBA1C (hemoglobin Alc): last value before release date • 5. PLDL: preceding LDL level expressed in e.g. 10 mg/dl units • 6. Statins • a. PLOVA: prior daily dose of lovastatin expressed in e.g. 10 mg units • b. […] For additional drugs: • a. AMIODOSE: amiodarone dose in mg/day • b. CARBDOSE: carbemazepine dose in mg/day • c. PIOGDOSE: pioglitazone dose expressed as number of 15 mg doses per day • d. […] METFDOSE: metformin dose expressed as number of 1000 mg doses per day • f. PHENDOSE: phenyloin dose in mg/day • g. RISPDOSE: risperidone dose in mg/day • h. ROSIDOSE: rosiglitazone dose in mg/day • i.
Body mass index (BMI) was chosen as a covariate of statin response because obese patients tend to consume a diet high in cholesterol. It was hypothesized that they would respond less well to statins because their hypercholesterolemia was more likely to be mediated by dietary indiscretion than excessive LDL synthesis. […] Metformin and the thiazolidinediones were chosen because they reduce LDL levels in diabetic patients through mechanisms that may or may not be affected by concurrent statin treatment. The remaining non-statin drugs were chosen because they are commonly used drugs that potentiate the effect of statins. They were selected by reviewing the official on-line VA pharmaceutical reference (Micromedex®) for major interactions mediated by impaired statin metabolism. […] The daily dose of the non-statin drug was calculated by the method described in Section B.
H. Assembling the predictor file—The patient identifier was used to link the new statin prescription type and dose, the preceding LDL above goal, and the type and dose of the previous statin (if any) with the patient's most recent HbA1c, most recent BMI, and the daily doses of 9 drugs with major statin interactions that were active at the time the new prescription was released.
The dependent variable was attainment of goal (LDL <100 mg/dl). […] Step selections were based upon the maximal likelihood method with α<0.15 to enter and ≧0.15 to remove.

For test [3], the system named is LDL. The test can be described thus: Proportion of CAD patients attaining LDL goal (<100 mg/dl) on a statin dose; validation sets stratified by predicted probability. Conditions: for Proportion of patients achieving goal: validation set; for Chance of success (reaching goal) of any dose choice: this study.

Turning to `CC(C)c1nc(N(C)S(C)(=O)=O)nc(-c2ccc(F)cc2)c1/C=C/[C@@H](O)C[C@@H](O)CC(=O)O` [Rosuva, rosuvastatin], the “Average LDL reduction” value in test [1] (Dose 5 mg) is on record as 43%; in test [1] (Dose 10 mg) it was 50%; in test [1] (Dose 20 mg), 53%; in test [1] (Dose 40 mg) it was 62%.
On to `CC[C@H](C)C(=O)O[C@H]1C[C@H](O)C=C2C=C[C@H](C)[C@H](CC[C@@H](O)C[C@@H](O)CC(=O)O)[C@H]21` [Prava, pravastatin], for which the “Average LDL reduction” value in test [1] (Dose 10 mg) was 19%; in test [1] (Dose 20 mg), 24%; in test [1] (Dose 40 mg), 34%; in test [1] (Dose 80 mg) it was 40%.
In the case of `CC(C)n1c(/C=C/C(O)CC(O)CC(=O)O)c(-c2ccc(F)cc2)c2ccccc21` (stereo not shown) [Fluva, fluvastatin], the “Average LDL reduction” value in test [1] (Dose 20 mg) is given as 17%; in test [1] (Dose 40 mg) it was 23%; in test [1] (Dose 80 mg), 33%.
For the compound `CC(C)c1c(C(=O)Nc2ccccc2)c(-c2ccccc2)c(-c2ccc(F)cc2)n1CC[C@@H](O)C[C@@H](O)CC(=O)O` [Atorva, atorvastatin], the “Average LDL reduction” value in test [1] (Dose 10 mg) is on record as 36%; in test [1] (Dose 20 mg) it was 46%; in test [1] (Dose 40 mg), 51%; in test [1] (Dose 80 mg), 54%.
Take `CCC(C)(C)C(=O)O[C@H]1C[C@@H](C)C=C2C=C[C@H](C)[C@H](CC[C@@H]3C[C@@H](O)CC(=O)O3)[C@H]21` [Simvastatin, simvastatin]: the “Reduction of odds of reaching goal” value in test [2] (for every 10 mg/day in the previous simvastatin dose, simvastatin 20 model) was determined as 70%. For the same compound, the OR in test [2] (Model 1, Simvastatin 10 mg, per 10 mg/day) is 0.130; in test [2] (Model 1, Simvastatin 20 mg, per 10 mg/day) it was 0.355; in test [2] (Model 1, Simvastatin 40 mg, per 10 mg/day), 0.771; in test [2] (Model 1, Simvastatin 80 mg, per 10 mg/day), 0.900; in test [2] (Simvastatin 10 mg [B] model (includes BMI; n = 136), per dose increment), 0.0593; in test [2] (Simvastatin 10 mg [C] model (excludes BMI; n = 219), per dose increment), 0.149. In addition, the OR was found to be 0.356 in test [2] (Simvastatin 20 mg model (n = 374), per dose increment); 0.788 in test [2] (Simvastatin 40 mg model (n = 698), per dose increment); 0.887 in test [2] (Simvastatin 80 mg model (n = 481), per dose increment). For the same compound, the “Proportion of patients achieving goal” value is listed as 14.3% in test [3] (Model 1, simvastatin 10 mg, predicted probability 0-19%); 31.8% in test [3] (Model 1, simvastatin 10 mg, predicted probability 20-39%); 57.6% in test [3] (Model 1, simvastatin 10 mg, predicted probability 40-59%); 69.7% in test [3] (Model 1, simvastatin 10 mg, predicted probability 60-79%); 100% in test [3] (Model 1, simvastatin 10 mg, predicted probability 80-100%); 11.1% in test [3] (Model 1, simvastatin 20 mg, predicted probability 0-19%). Besides, the “Proportion of patients achieving goal” value in test [3] (Model 1, simvastatin 20 mg, predicted probability 20-39%) was 32.9%; in test [3] (Model 1, simvastatin 20 mg, predicted probability 60-79%), 66.2%; in test [3] (Model 1, simvastatin 40 mg, Overall) it was 57.0%; in test [3] (Model 1, simvastatin 40 mg, predicted probability 0-19%), 36.4%; in test [3] (Model 1, simvastatin 40 mg, predicted probability 20-39%), 30.4%; in test [3] (Model 1, simvastatin 40 mg, predicted probability 40-59%), 54.2%. The “Proportion of patients achieving goal” value in test [3] (Model 1, simvastatin 40 mg, predicted probability 60-79%) was 67.2%; in test [3] (Model 1, simvastatin 40 mg, predicted probability 80-100%), 0%; in test [3] (Model 1, simvastatin 80 mg, Overall) it was 61.9%; in test [3] (Model 1, simvastatin 80 mg, predicted probability 20-39%), 42.7%; in test [3] (Model 1, simvastatin 80 mg, predicted probability 40-59%), 42.7%; in test [3] (Model 1, simvastatin 80 mg, predicted probability 60-79%), 68.9%. Besides, the “Proportion of patients achieving goal” value is listed as 74.3% in test [3] (Model 1, simvastatin 80 mg, predicted probability 80-100%); 8.3% in test [3] (Simvastatin 10 mg [A] model, predicted probability 0-19%); 29.7% in test [3] (Simvastatin 10 mg [A] model, predicted probability 20-39%); 62.1% in test [3] (Simvastatin 10 mg [A] model, predicted probability 40-59%); 68.6% in test [3] (Simvastatin 10 mg [A] model, predicted probability 60-79%); 75.0% in test [3] (Simvastatin 10 mg [A] model, predicted probability 80-100%). For the same compound, the “Proportion of patients achieving goal” value is listed as 52.1% in test [3] (Simvastatin 10 mg [B] model, Overall); 10.0% in test [3] (Simvastatin 10 mg [B] model, predicted probability 0-19%); 26.3% in test [3] (Simvastatin 10 mg [B] model, predicted probability 20-39%); 58.8% in test [3] (Simvastatin 10 mg [B] model, predicted probability 40-59%); 70.6% in test [3] (Simvastatin 10 mg [B] model, predicted probability 60-79%); 100% in test [3] (Simvastatin 10 mg [B] model, predicted probability 80-100%). Further, the “Proportion of patients achieving goal” value is on record as 11.8% in test [3] (Simvastatin 10 mg [C] model, predicted probability 0-19%); 31.8% in test [3] (Simvastatin 10 mg [C] model, predicted probability 20-39%); 60.0% in test [3] (Simvastatin 10 mg [C] model, predicted probability 40-59%); 74.2% in test [3] (Simvastatin 10 mg [C] model, predicted probability 60-79%); 75.0% in test [3] (Simvastatin 10 mg [C] model, predicted probability 80-100%); 10.5% in test [3] (Simvastatin 20 mg [C] model, predicted probability 0-19%). In addition, the “Proportion of patients achieving goal” value is 35.1% in test [3] (Simvastatin 20 mg [C] model, predicted probability 20-39%); 65.3% in test [3] (Simvastatin 20 mg [C] model, predicted probability 60-79%); 57.4% in test [3] (Simvastatin 40 mg model, Overall); 20.0% in test [3] (Simvastatin 40 mg model, predicted probability 0-19%); 38.6% in test [3] (Simvastatin 40 mg model, predicted probability 20-39%); 54.6% in test [3] (Simvastatin 40 mg model, predicted probability 40-59%). Besides, the “Proportion of patients achieving goal” value is listed as 67.0% in test [3] (Simvastatin 40 mg model, predicted probability 60-79%); 65.0% in test [3] (Simvastatin 40 mg model, predicted probability 80-100%); 61.9% in test [3] (Simvastatin 80 mg model, Overall); 41.7% in test [3] (Simvastatin 80 mg model, predicted probability 20-39%); 41.9% in test [3] (Simvastatin 80 mg model, predicted probability 40-59%); 72.8% in test [3] (Simvastatin 80 mg model, predicted probability 60-79%). The “Proportion of patients achieving goal” value in test [3] (Simvastatin 80 mg model, predicted probability 80-100%) is recorded as 70.8%. Further, the “Chance of success (reaching goal) of any dose choice” value in test [3] (all choices except 80 mg daily) is at most 60%; in test [3] (all doses), at most 62%.
